# Source: patent publication US5629406A, “Inhibitors of HIV protease” (Sankyo Company, Limited, priority 1992, dated 1997)
# Structures can show the parent of a compound that is named as a salt. Where two headings read alike, the source gives them in different places.
# Legend:
# [1] = molecular target: HIV pol protease (Human immunodeficiency virus type 1 group M subtype B, UniProt P03366); test: Assay of the inhibition of HIV pol protease (synthetic substrate TE-2, HPLC of TE-3)
# Protocol: The Ki, that is the dissociation constant of the enzyme-inhibitor complex, measured according to the equation [formula]
# A reaction mixture containing 1 mM or 1.5 mM of the substrate TE-2, having the structure described in European Patent Publication No. 498,680, 1 μl of the desired concentration of the compound to be tested (dissolved in dimethyl sulfoxide comprising 20% v/v water), 2 μl of the enzyme solution prepared as described in step (c), above, and buffer solution [50 mM tris HCl (pH 6.0), 0.25M sodium chloride, 0.1 mM ethylenediaminetetraacetic acid, 0.1 mM Triton X-100] to form 10 μl in total, was incubated for 30 minutes at 37° C.
# The reaction was Stopped by the addition of 250 μl of a 0.1% w/v solution of aqueous trifluoroacetic acid and 10% v/v acetonitrile. The reaction mixture was then subjected to Sep-pak light™ chromatography (Waters Co., Milford, Mass., USA), and the fractions passing through the column were collected.
# The substrate TE-2 is decomposed by the HIV protease to form a shortened peptide of four amino acids, (TE-3; having the structure described in European Patent Publication No. 498,680). The amount of TE-3 formed was assayed quantitatively using a high performance liquid chromatography (HPLC) column [ODS-120T (Trade Mark), 4.6 mm in inner diameter ×250 mm, To-So Co.] using a mixture of 9% acetonitrile-0.05% trifluoroacetic acid as the eluting solvent.
# The Ki in nM was calculated according to the method of Michaelis-Menten using the equation given above.
# [2] = test system: Molt 4/HTLV IIIB; test: Inhibition of the release of virus from Molt 4 cells chronically infected with HIV; assay type: cell-based, HIV (HTLVIIIB)
# Protocol: Inhibition of the Release of Virus from Molt 4 Cells Chronically Infected with HIV (Molt 4/HTLV IIIB)
# A Molt 4 cell line chronically infected with HIV, that is with HTLVIIIB, was established (Molt 4/HTLVIIIB). The cells were washed twice with growth medium (RPMI-1640 medium containing 10% v/v heat-inactivated fetal calf serum). The washed cells were then inoculated into growth medium at a density of 2×10^5 cells/ml, in the presence of selected concentrations of test compounds, at 37° C., and cultured under an atmosphere of 5% carbon dioxide.
# After 48 hours, the test cultures were spun down at 1000×g for 3 minutes, and the supernatant was collected. Polyethylene glycol 6000 was added to the supernatant to a final concentration of 10% w/v, and the resulting solution was left to stand for 6 hours on ice. Virions precipitated by this procedure were subsequently obtained as a pellet by centrifuging the treated supernatants for 30 minutes at 10000×g. The amount of HIV antigen in the pellets was then determined using a commercial enzyme immunoassay (EIA) system [HIV antigen EIA kit, available from Abbot].
# IC50 (the minimum concentration of test compound sufficient to reduce the amount of HIV antigen production by 50%, as determined by the EIA system) was used as a measure of anti-HIV activity.
Compound,Ki [1] [nM],also measured
"CNc1ccc(OCC(=O)N[C@@H](CC(N)=O)C(=O)N[C@@H](Cc2ccccc2)[C@H](O)C(=O)N2CCC[C@H]2C(=O)NC(C)(C)C)cc1 [Example 20, 1-[(2S,3S)-3-{N^2-[4-(Methylamino)phenoxyacetyl]-L-asparaginyl}amino-2-hydroxy-4-phenylbutyryl]-N-t-butyl-L-prolinamide hydrochloride]",49,–
"CC(C)(C)NC(=O)[C@@H]1C[C@H](Cl)CN1C(=O)[C@@H](O)[C@H](Cc1ccccc1)NC(=O)[C@H](CC(N)=O)NC(=O)c1cnc2ccccc2n1 [Example 14, (4S)-1-{(2S,3S)-3-[N^2-(2-Quinoxalinecarbonyl)-L-asparaginyl]amino-2-hydroxy-4-phenylbutyryl}-N-t-butyl-4-chloro-L-prolinamide]",4.7,"IC50 ([2]; Human immunodeficiency virus 1, IIIB, MOLT-4, 48 h, read-out: IC50 (concentration reducing HIV antigen production by 50%)): 0.39 µg/mL"
"CC(C)(C)NC(=O)[C@@H]1C[C@@H](O)CN1C(=O)[C@@H](O)[C@H](Cc1ccccc1)NC(=O)[C@H](CC(N)=O)NC(=O)OCc1ccccc1 [Example 4, (4R)-1-[(2S,3S)-3-(N^2 -Benzyloxycarbonyl-L-asparaginyl)amino-2-hydroxy-4-phenylbutyryl]-N-t-butyl-4-hydroxy-L-prolinamide]",56,–
"CC(C)(C)NC(=O)[C@@H]1C[C@H](Cl)CN1C(=O)[C@@H](O)[C@H](Cc1ccccc1)NC(=O)[C@H](CC(N)=O)NC(=O)OCc1ccccc1 [Example 1, (4S)-1-[(2S,3S)-3-(N^2 -Benzyloxycarbonyl-L-asparaginyl)amino-2-hydroxy-4-phenylbutyryl]-N-t-butyl-4-chloro-L-prolinamide]",8,–
"CC(C)(C)NC(=O)[C@@H]1CCCN1C(=O)[C@@H](O)[C@H](Cc1ccccc1)NC(=O)[C@H](CC(N)=O)NC(=O)COc1ccc(N)cc1 [Example 17, 1-{(2S,3S)-3-[N^2-(4-Aminophenoxyacetyl)-L-asparaginyl)amino-2-hydroxy-4-phenylbutyryl]-N-t-butyl-L-prolinamide hydrochloride]",18.5,–
"CC(C)(C)NC(=O)[C@@H]1CCCN1C(=O)[C@@H](O)[C@H](Cc1ccccc1)NC(=O)[C@H](CC(N)=O)NC(=O)COc1ccc(NC(=O)CN)cc1 [Example 18, 1-[(2S,3S)-3-{N^2-[4-(Glycylamino)phenoxyacetyl]-L-asparaginyl}amino-2-hydroxy-4-phenylbutyryl]-N-t-butyl-L-prolinamide hydrochloride]",30,–
"CN(C)c1ccc(OCC(=O)N[C@@H](CC(N)=O)C(=O)N[C@@H](Cc2ccccc2)[C@H](O)C(=O)N2CCC[C@H]2C(=O)NC(C)(C)C)cc1 [Example 21, 1-[(2S,3S)-3-{N^2-[4-(N,N-Dimethylamino)phenoxyacetyl]-L-asparaginyl}amino-2-hydroxy-4-phenylbutyryl]-N-t-butyl-L-prolinamide]",37,–
"CC(C)(C)NC(=O)[C@@H]1CCCN1C(=O)[C@@H](O)[C@H](Cc1ccccc1)NC(=O)[C@H](CC(N)=O)NC(=O)COc1ccc(NC(=O)OCc2ccccc2)cc1 [Example 16, 1-[(2S,3S)-3-{N^2-[4-(Benzyloxycarbonylamino)phenoxyacetyl]-L-asparaginyl}amino-2-hydroxy-4-phenylbutyryl]-N-t-butyl-L-prolinamide]",14,–
"CC(C)(C)NC(=O)[C@@H]1C[C@@H]2CCCC[C@@H]2CN1C[C@@H](O)[C@H](Cc1ccccc1)NC(=O)[C@H](CC(N)=O)NC(=O)c1ccc2ccccc2n1 [Ro31-8959, 3-t-butylaminocarbonyl-2-{(2R, 3S)-3-[(N-2'-quinolinecarbonyl-L-asparaginyl)amino]-2-hydroxy-4-phenylbutyl}-(3S, 4aS, 8aS)-decahydroisoquinoline, reference compound]",–,"Ki ([1]; 1 mM or 1.5 mM substrate TE-2, pH 6.0, 30 minutes at 37° C., calculated by Michaelis-Menten): 58 nM; IC50 (concentration reducing HIV antigen production by 50%) ([2]; Molt 4/HTLVIIIB cells, 48 hours, HIV antigen in precipitated virions by EIA): > 20.0 µg/mL"
